From US20100160454A1, “ANTIMICROBIAL AGENTS, COMPOSITIONS AND PRODUCTS CONTAINING THE SAME, AND METHODS OF USING THE COMPOSITIONS AND PRODUCTS” (Eastman Chemical Company, priority 2008, published 2010)

Tests used:
Test in all cases: Microbiological challenge testing in BPW broth, graded subculture counts
Format in all cases: cell-based
[1] = test system: Aspergillus niger Wild type; settings: A. niger
In short: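 Wild-type A. niger, grown in TSB with 1% dextrose at 22 °C and on SABD until sporulation, was adjusted to 1.0×10^8 spores/vegetative cells (hemocytometer). It was inoculated in triplicate into BPW with 1% dextrose to give 10^5 to 10^6 CFU/mL at time zero. Counts were by spread plate on SABD, ≥48 h at 22 °C, CFU/mL = count × dilution factor.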

[2] = test system: Burkholderia cepacia Wild type; settings: B. cepacia
In short: (§1)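 Strains grown in TSB with 1% dextrose at 35 °C for ≥96 h. Inoculum added to BPW broth with 1% dextrose, with or without test material (w/v), to 10^5–10^6 CFU/mL at time zero. Counts by spread-plating serial 1:10 dilutions in pH 7.2 phosphate buffer on PCA, incubated at 35 °C for ≥48 h.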

[3] = test system: Escherichia coli ATCC 25922; settings: E. Coli
In short: as §1

Aeromonas sp. Wild type = test system: Aeromonas sp. Wild type
In short: as §1

[4] = test system: Staphylococcus aureus ATCC 25923; settings: S. aureus
In short: as §1

[5] = test system: Streptococcus mutans ATCC 35668
In short: as §1

OCC1CCC(CO)CC1 (stereo not drawn) [1,4-CHDM, 1,4-cyclohexanedimethanol]
Grade ([1]; 0.5% (wt/vol), 3 day): 4
Grade ([1]; 0.5% (wt/vol), 13 day): 4
Grade ([1]; 0.5% (wt/vol), 30 day): 4
Grade ([1]; 1.25% (wt/vol), 3 day): 4
Grade ([1]; 1.25% (wt/vol), 13 day): 4
Grade ([1]; 1.25% (wt/vol), 30 day): 4
Grade ([1]; 2.5% (wt/vol), 3 day): 2 (Countable (10 to 100 colonies))
Grade ([1]; 2.5% (wt/vol), 13 day): 1 (Countable (1 to 10 colonies))
Grade ([1]; 2.5% (wt/vol), 30 day): 2.3
Grade ([1]; 5.0% (wt/vol), 3 day): 0
Grade ([1]; 5.0% (wt/vol), 13 day): 0
Grade ([1]; 5.0% (wt/vol), 30 day): 0
Grade ([2]; 0.5% (wt/vol), 3 day): 4 (1000 to 10,000 colonies countable (thus 10,000 CFU/mL to 100,000 CFU/mL))
Grade ([2]; 0.5% (wt/vol), 14 day): 4 (1000 to 10,000 colonies countable (thus 10,000 CFU/mL to 100,000 CFU/mL))
Grade ([2]; 0.5% (wt/vol), 30 day): 4 (1000 to 10,000 colonies countable (thus 10,000 CFU/mL to 100,000 CFU/mL))
Grade ([2]; 1.25% (wt/vol), 3 day): 4 (1000 to 10,000 colonies countable (thus 10,000 CFU/mL to 100,000 CFU/mL))
Grade ([2]; 1.25% (wt/vol), 14 day): 2 (52 to 100 colonies counted (thus 520 to 1000 CFU/mL))
Grade ([2]; 1.25% (wt/vol), 30 day): 4 (1000 to 10,000 colonies countable (thus 10,000 CFU/mL to 100,000 CFU/mL))
Grade ([2]; 2.5% (wt/vol), 3 day): 0
Grade ([2]; 2.5% (wt/vol), 14 day): 0
Grade ([2]; 2.5% (wt/vol), 30 day): 0
Grade ([2]; 5.0% (wt/vol), 3 day): 0
Grade ([2]; 5.0% (wt/vol), 14 day): 0
Grade ([2]; 5.0% (wt/vol), 30 day): 0
Grade ([3]; 0.5% (wt/vol), 3 day): 5 (More than 10,000 colonies estimated (thus more than 100,000 CFU/mL))
Grade ([3]; 0.5% (wt/vol), 14 day): 4 (1000 to 10,000 colonies countable (thus 10,000 CFU/mL to 100,000 CFU/mL))
Grade ([3]; 0.5% (wt/vol), 30 day): 4 (1000 to 10,000 colonies countable (thus 10,000 CFU/mL to 100,000 CFU/mL))
Grade ([3]; 1.25% (wt/vol), 3 day): 4 (1000 to 10,000 colonies countable (thus 10,000 CFU/mL to 100,000 CFU/mL))
Grade ([3]; 1.25% (wt/vol), 14 day): 4 (1000 to 10,000 colonies countable (thus 10,000 CFU/mL to 100,000 CFU/mL))
Grade ([3]; 1.25% (wt/vol), 30 day): 4 (1000 to 10,000 colonies countable (thus 10,000 CFU/mL to 100,000 CFU/mL))
Grade ([3]; 2.5% (wt/vol), 3 day): 3 (100 to 1000 colonies (thus 1000 to 10,000 CFU/mL))
Grade ([3]; 2.5% (wt/vol), 14 day): 2 (52 to 100 colonies counted (thus 520 to 1000 CFU/mL))
Grade ([3]; 2.5% (wt/vol), 30 day): 0
Grade ([3]; 5.0% (wt/vol), 3 day): 0
Grade ([3]; 5.0% (wt/vol), 14 day): 0
Grade ([3]; 5.0% (wt/vol), 30 day): 0
Aeromonas sp growth grade, 3 day (Aeromonas sp. Wild type; 0.5% weight/volume): 5 (More than 10,000 colonies estimated (thus more than 100,000 CFU/mL))
Aeromonas sp growth grade, 14 day (Aeromonas sp. Wild type; 0.5% weight/volume): 4 (1000 to 10,000 colonies countable (thus 10,000 CFU/mL to 100,000 CFU/mL))
Aeromonas sp growth grade, 30 day (Aeromonas sp. Wild type; 0.5% weight/volume): 4 (1000 to 10,000 colonies countable (thus 10,000 CFU/mL to 100,000 CFU/mL))
Aeromonas sp growth grade, 3 day (Aeromonas sp. Wild type; 1.25% weight/volume): 4 (1000 to 10,000 colonies countable (thus 10,000 CFU/mL to 100,000 CFU/mL))
Aeromonas sp growth grade, 14 day (Aeromonas sp. Wild type; 1.25% weight/volume): 3 (100 to 1000 colonies (thus 1000 to 10,000 CFU/mL))
Aeromonas sp growth grade, 30 day (Aeromonas sp. Wild type; 1.25% weight/volume): 2 (52 to 100 colonies counted (thus 520 to 1000 CFU/mL))
Aeromonas sp growth grade, 3 day (Aeromonas sp. Wild type; 2.5% weight/volume): 3 (100 to 1000 colonies (thus 1000 to 10,000 CFU/mL))
Aeromonas sp growth grade, 14 day (Aeromonas sp. Wild type; 2.5% weight/volume): 1 (0 to 51 colonies counted (thus 10 to 510 CFU/mL based on 0.1-mL sample))
Aeromonas sp growth grade, 30 day (Aeromonas sp. Wild type; 2.5% weight/volume): 0
Aeromonas sp growth grade, 3 day (Aeromonas sp. Wild type; 5.0% weight/volume): 0
Aeromonas sp growth grade, 14 day (Aeromonas sp. Wild type; 5.0% weight/volume): 0
Aeromonas sp growth grade, 30 day (Aeromonas sp. Wild type; 5.0% weight/volume): 0
Grade ([4]; 0.5% (wt/vol), 3 day): 4 (1000 to 10,000 colonies countable (thus 10,000 CFU/mL to 100,000 CFU/mL))
Grade ([4]; 0.5% (wt/vol), 14 day): 4 (1000 to 10,000 colonies countable (thus 10,000 CFU/mL to 100,000 CFU/mL))
Grade ([4]; 0.5% (wt/vol), 30 day): 4 (1000 to 10,000 colonies countable (thus 10,000 CFU/mL to 100,000 CFU/mL))
Grade ([4]; 1.25% (wt/vol), 3 day): 3 (100 to 1000 colonies (thus 1000 to 10,000 CFU/mL))
Grade ([4]; 1.25% (wt/vol), 14 day): 2.7
Grade ([4]; 1.25% (wt/vol), 30 day): 4 (1000 to 10,000 colonies countable (thus 10,000 CFU/mL to 100,000 CFU/mL))
Grade ([4]; 2.5% (wt/vol), 3 day): 1.7
Grade ([4]; 2.5% (wt/vol), 14 day): 1 (0 to 51 colonies counted (thus 10 to 510 CFU/mL based on 0.1-mL sample))
Grade ([4]; 2.5% (wt/vol), 30 day): 0
Grade ([4]; 5.0% (wt/vol), 3 day): 0
Grade ([4]; 5.0% (wt/vol), 14 day): 0
Grade ([4]; 5.0% (wt/vol), 30 day): 0
S. mutans growth grade, 3 day ([5]; 0.5% weight/volume): 4 (1000 to 10,000 colonies countable (thus 10,000 CFU/mL to 100,000 CFU/mL))
S. mutans growth grade, 13 day ([5]; 0.5% weight/volume): 4 (1000 to 10,000 colonies countable (thus 10,000 CFU/mL to 100,000 CFU/mL))
S. mutans growth grade, 30 day ([5]; 0.5% weight/volume): 4 (1000 to 10,000 colonies countable (thus 10,000 CFU/mL to 100,000 CFU/mL))
S. mutans growth grade, 3 day ([5]; 1.25% weight/volume): 4 (1000 to 10,000 colonies countable (thus 10,000 CFU/mL to 100,000 CFU/mL))
S. mutans growth grade, 13 day ([5]; 1.25% weight/volume): 2 (52 to 100 colonies counted (thus 520 to 1000 CFU/mL))
S. mutans growth grade, 30 day ([5]; 1.25% weight/volume): 2 (52 to 100 colonies counted (thus 520 to 1000 CFU/mL))
S. mutans growth grade, 3 day ([5]; 2.5% weight/volume): 2 (52 to 100 colonies counted (thus 520 to 1000 CFU/mL))
S. mutans growth grade, 13 day ([5]; 2.5% weight/volume): 0
S. mutans growth grade, 30 day ([5]; 2.5% weight/volume): 0
S. mutans growth grade, 3 day ([5]; 5.0% weight/volume): 0
S. mutans growth grade, 13 day ([5]; 5.0% weight/volume): 0
S. mutans growth grade, 30 day ([5]; 5.0% weight/volume): 0
